Source: patent US5736523A, “Antineoplastic heteronapthoquinones” (Biochem Pharma Inc., priority 1995, dated 1998)
Where a name gives a salt, the structure may show the parent alone. Read-outs that look alike come from different tables or passages of the source.

Legend:
Assay type in all cases: cell-based, human
[1] = test system: SKOV3 (Ovarian adenocarcinoma); assay: In vitro cytotoxicity, microculture tetrazolium (MTT) assay, SKOV3
Procedure: (§1) In Vitro Cytotoxicity--Microculture Tetrazolium Assay
(§2) The microculture tetrazolium assay was used to test in vitro cytotoxicity. This assay is described in Plumb, J. A. et al., 1989 Cancer Research 49, 4435-4440, which is herein incorporated by reference. The cytotoxicity of compounds towards tumor cells is measured in vitro using the assay. This assay method is based upon the ability of live, but not dead cells to reduce the yellow water soluble dye 3-(4;5-dimethylthiazol-2-yl)-2,5-diphenyltetrazolium bromide (MTT) to its water insoluble purple formazan product.
(§3) Human Tumor Cell lines, used were:
SKOV3 (Ovarian adenocarcinoma)--provided by Dr. V. Ling,
(§4) The cells were maintained in exponential growth in culture in minimal essential media (MEM) supplemented with non-essential amino acids, and containing 15% (v/v) fetal bovine serum, 5 mM L-glutamine, 1 mM sodium pyruvate, and 0.1 U/ml insulin. All cell lines were grown at 37° C. in an atmosphere of 5% CO2 in air.
(§5) Test compounds: 20 mM in DMSO and diluted to a final concentration of 200 μM in culture medium before use.
(§6) The following is the generic description of the assay method. It should be noted that although the conditions described work well with the cells listed above, the initial plating density and the MTT concentration used should be verified for each new cell line used to test compounds.
(§7) For each assay, doxorubicin is included as an inter-assay standard. This allows us to monitor the behaviour of the assay in general, and in particular, to check that the SKVLB line has maintained its resistant phenotype.
(§8) The plate layout is done in the following manner: The assays are carried out in 96-well (8 well×12 well) microtiter plates. Serial dilutions of the compound are tested along the length of the plate. A 1:3 serial dilution of compound in culture medium covers a concentration range from 100 μM to 1.7 nM. Each concentration of compound is tested in quadruplet, allowing two compounds to be tested per plate. Wells containing no cells (blank) and cells with no test compound (control) are included on each plate.
(§9) Cells are plated out in 100 μl of culture medium in the microtiter plates at a density of around 1,500-4,000 cells per well. The plates are incubated overnight to allow the cells to become adherent after which the test compound is added (100 μl of appropriate dilution per well). The cells are incubated with test compound at 37° C. for 48 h after which the compound is replaced with fresh medium. After a further 48 h incubation at 37° C., 50 μl of MTT solution (2 mg/ml) is added to each well. The plates are incubated in the dark for 4 h at 37° C. after which the medium is removed. The MTT formazan product is extracted from the cells by the addition of 200 μl DMSO followed by 50 μl of Sorensen's buffer. The plates are shaken briefly and the absorbance at 570 nm is read using a Molecular Devices UV max plate reader. Curves are fit to the MTT assay data using a four parameter logistic equation, and the data are normalized to fit a 0% to 100% survival scale.

[2] = test system: SKVLB (Ovarian; multidrug resistant); assay: In vitro cytotoxicity, microculture tetrazolium (MTT) assay, SKVLB; settings: for VLB/OV3: ratio SKVLB / SKOV3
Procedure: as §1, §2, §3
SKVLB (Ovarian; multidrug resistant)--Dr. V. Ling, Ontario
as §4, §5, §6, §7, §8, §9

[3] = test system: T47D (Ductal carcinoma of breast); assay: In vitro cytotoxicity, microculture tetrazolium (MTT) assay, T47D
Procedure: as §1, §2, §3
T47D (Ductal carcinoma of breast)--ATCC catalog #HTB-133.
as §4, §5, §6, §7, §8, §9

Lox (Melanoma) = assay: In vitro cytotoxicity, microculture tetrazolium (MTT) assay, Lox
Procedure: as §1, §2, §3
Lox (Melanoma)--Southern Research Institute.
as §4, §5, §6, §7, §8, §9

[4] = test system: HT 29 (Colon adenocarcinoma); assay: In vitro cytotoxicity, microculture tetrazolium (MTT) assay, HT 29
Procedure: as §1, §2, §3
HT 29 (Colon adenocarcinoma) ATCC catalog #HTB-38.
as §4, §5, §6, §7, §8, §9

[5] = SKVLB, multidrug resistant, read-out: IC50
[6] = Homo sapiens, HT-29, HT29, read-out: IC50
[7] = Homo sapiens, SK-OV-3, SKOV3, read-out: IC50
[8] = Homo sapiens, SKVLB, multidrug resistant, read-out: IC50

Methyl-(6-hydroxy-5,10-dioxo-3,4,5,10-tetrahydronaphtho-[2,3-c]-pyran-3-yl)ketone and methyl-(9-hydroxy-5,10-dioxo-3,4,5,10-tetrahydronaphtho-[2,3-c]-pyran-3-yl) ketone [BCH2062]
IC50 ([1]; SKOV3, read-out: IC50): 810 nM
IC50 [2, 5]: 842 nM
VLB/OV3 [2]: 1.04
IC50 ([3]; read-out: IC50): 776 nM
IC50 (Lox (Melanoma); read-out: IC50): 354 nM
IC50 ([4]; HT29, read-out: IC50): 1140 nM

CC(=O)C1CC2=C(C(=O)c3ccccc3C2=O)C(O)O1 (centres unmarked) [BCH1148, Methyl (1-hydroxy-5,10-dioxo-3,4,5,10-tetrahydronaphtho [2,3-C]pyran-3-yl) ketone]
IC50 [4, 6]: > 10000 nM

COC1OC(C(=O)NCCCn2ccnc2)=CC2=C1C(=O)c1ccccc1C2=O (centres unmarked) [BCH2157, (3-N-hydrochloroimidazolylpropyl)-1-methoxy-5,10-dioxo-5,10-dihydro-1H-naphtho-[2,3-c]-pyran-3-carboxamide]
IC50 [1, 7]: 187 nM
IC50 [2, 8]: 3390 nM
VLB/OV3 [2]: 18.13
IC50 ([3]; Homo sapiens, read-out: IC50): 233 nM
IC50 (Lox (Melanoma); Homo sapiens, read-out: IC50): 15.5 nM
IC50 [4, 6]: 1230 nM

COC1OC(C(=O)NCCN2CCOCC2)=CC2=C1C(=O)c1ccccc1C2=O (centres unmarked) [BCH2171, 1-methoxy-3-[2-(N-morpholine)ethylaminocarbonyl]-5,10-dioxo-5,10-dihydro-1H-naphtho-[2,3-c]-pyran]
VLB/OV3 [2]: 2.16
IC50 ([3]; Homo sapiens, read-out: IC50): 398 nM
IC50 ([4]; HT29, read-out: IC50): 219 nM

(1'S,1S,3R)-methyl-(6 and 9-hydroxy-1-[2',3',6'-trideoxy-3'-trifluoroacetamido-4'-hydroxy-L-lyxohexopyranose]-5,10-dioxo-3,4,5,10-tetrahydronaphtho-[2,3-c]-pyran-3-yl-ketone [BCH2078]
IC50 ([1]; SKOV3, read-out: IC50): 414 nM
IC50 [2, 5]: 2240 nM
VLB/OV3 [2]: 5.41
IC50 ([3]; read-out: IC50): 507 nM
IC50 ([4]; HT29, read-out: IC50): 269 nM

C=C(C)[C@H]1CC2=C(C(=O)c3ccccc3C2=O)[C@H](OC)O1 (relative stereo) [BCH2148, (trans)-5,10-dioxo-3-isopropenyl-1-methoxy-3,4,5,10-tetrahydro-1H-naphtho-[2,3-c]-pyran]
VLB/OV3 [2]: 0.79
IC50 (Lox (Melanoma); Homo sapiens): 1550 nM

CC(=O)C1CC2=C(C(=O)c3ccccc3C2=O)C(OC2CC(NC(=O)C(F)(F)F)C(O)C(C)O2)O1 (centres unmarked) [BCH2145]
IC50 ([1]; SKOV3, read-out: IC50): 8190 nM
IC50 [2, 5]: 13400 nM
VLB/OV3 [2]: 1.64
IC50 (Lox (Melanoma); read-out: IC50): 830 nM
IC50 ([4]; HT29, read-out: IC50): 2480 nM

COP(=O)(CC(=O)[C@H]1CC2=C(C(=O)c3ccccc3C2=O)[C@H](O[C@H]2C[C@H](NC(=O)C(F)(F)F)[C@H](O)[C@H](C)O2)O1)OC [BCH1690, (1'S,1S,3R)-1-(2',3',6'-trideoxy-3'-trifluoroacetamido-L-lyxohexopyranose)-3-dimethylphosphonoacetyl-5,10-dioxo-3,4,5-10-tetrahydro-1H-naphtho-[2,3-c]-pyran]
IC50 ([1]; Homo sapiens, SK-OV-3): 1780 nM
IC50 ([2]; Homo sapiens): 13700 nM
VLB/OV3 [2]: 7.70
IC50 (Lox (Melanoma); Homo sapiens): 1620 nM
IC50 ([4]; Homo sapiens, HT-29): 3010 nM

CC[C@H]1CC2=C(C(=O)c3ccccc3C2=O)[C@H](NC(C)=O)O1 (relative stereo) [BCH2027, Trans-5,10-dioxo-1-acetamido-3-ethyl-3,4,5,10-tetrahydro-1H-naphtho-[2,3-c]-pyran]
VLB/OV3 [2]: 4.02
IC50 ([3]; Homo sapiens): 23300 nM
IC50 (Lox (Melanoma); Homo sapiens): 3040 nM

COP(=O)(CC(=O)[C@@H]1CC2=C(C(=O)c3ccccc3C2=O)[C@@H](O[C@H]2C[C@H](NC(=O)C(F)(F)F)[C@H](O)[C@H](C)O2)O1)OC [BCH1689, (1'S,1R,3S)-1-(2',3',6'-trideoxy-3'-trifluoroacetamido-L-lyxohexopyranose)-3-dimethylphosphonoacetyl-5,10-dioxo-3,4,5-10-tetrahydro-1H-naphtho-[2,3-c]-pyran]
IC50 ([1]; Homo sapiens, SK-OV-3): 2780 nM
IC50 ([2]; Homo sapiens): 16500 nM
VLB/OV3 [2]: 5.94
IC50 (Lox (Melanoma); Homo sapiens): 1720 nM
IC50 ([4]; Homo sapiens, HT-29): 3660 nM

CC(=O)C1CC2=C(C(=O)c3ccccc3C2=O)C(OCC2CCN(C(=O)OC(C)(C)C)CC2)O1.Cl (racemic) [BCH2068, Methyl-(1-O-[N-BOC-4-piperidinemethanol]-5,10-dioxo-3,4,5,10-tetrahydronaphthaleno-[2,3-c]pyran-3-yl) ketone, racemic, hydrochloride]
IC50 [2, 5]: 1200 nM
VLB/OV3 [2]: 1
IC50 ([3]; read-out: IC50): 422 nM
IC50 (Lox (Melanoma); read-out: IC50): 1300 nM
IC50 ([4]; HT29, read-out: IC50): 130 nM

COC1OC(C(=O)NCCCN2CCCC2=O)=CC2=C1C(=O)c1ccccc1C2=O (centres unmarked) [BCH2166, 1-methoxy-3-(3-N-pyrrolidinomylpropylaminocarbonyl)-5,10-dioxo-5,10-dihydro-1H-naphtho-[2,3-c]-pyran]
IC50 [1, 7]: 140 to 181 nM
IC50 [2, 8]: 495 to 1200 nM
VLB/OV3 [2]: 2.73
IC50 ([3]; Homo sapiens, read-out: IC50): 237 nM
IC50 [4, 6]: 443 to 1200 nM

CC(=O)O[C@@H]1[C@H](C)O[C@@H](OC2OC(C(C)=O)CC3=C2C(=O)c2ccccc2C3=O)C[C@@H]1OC(C)=O (mixture of isomers) [BCH2118, (1'S,1S,3R) and (1'S,1R,3S)-methyl-(1-[dideoxy-2',6'-diacetoxy-3',4'-L-lyxohexopyranose]-5,10-dioxo-3,4,5,10-tetrahydronaphtho-[2,3-c]-pyran-3-yl) ketone]
IC50 ([1]; SKOV3, read-out: IC50): 120 nM
IC50 [2, 5]: 790 nM
VLB/OV3 [2]: 6.68
IC50 ([3]; read-out: IC50): 244 nM
IC50 ([4]; HT29, read-out: IC50): 203 nM

COc1cccc2c1C(=O)c1c(O)c3c(c(O)c1C2=O)C[C@@](O)(C(=O)CO)C[C@@H]3O[C@H]1C[C@H](N)[C@H](O)[C@H](C)O1 [Adriamycin, reference compound]
IC50 ([1]; Homo sapiens, SK-OV-3): 12 nM
IC50 ([3]; Homo sapiens): 70 nM
IC50 (Lox (Melanoma); Homo sapiens): 34 nM
IC50 ([4]; Homo sapiens, HT-29): 90 nM

CC(=O)CC1CC2=C(C(=O)c3cccc(O)c3C2=O)C(O[C@H]2C[C@H](NC(=O)C(F)(F)F)[C@H](O)[C@H](C)O2)O1 (mixture of isomers) [BCH2098, (1'-S,1-S,3-R) and (1'-S,1-R,3-S)-1-(6-hydroxy-1-(2',3',6'-trideoxy-3'-trifluoroacetamido,4-hydroxy-L-lyxopyranose)-5,10-dioxo-3,4,5,10 tetrahydronaphtho-[2,3-c]pyran-3-yl) propane-2-one]
VLB/OV3 [2]: 4

C[C@@H]1O[C@@H](OC2OC(C#N)CC3=C2C(=O)c2ccccc2C3=O)C[C@H](NC(=O)C(F)(F)F)[C@@H]1O (mixture of isomers) [BCH1688, (1'-S,1-R,3-S) and (1'-S,1-S,3-R)-3-cyano-1-[2',3',6'-trideoxy-3'-trifluoroacetamido-4'-hydroxy-L-lyxohexopyranose)-5,10-dioxo-3,4,5,10-tetrahydronaphtho-[2,3-C] pyran-3-yl]
VLB/OV3 [2]: 4.37

COC[C@@H]1CC2=C(C(=O)c3ccccc3C2=O)[C@@H](O[C@H]2C[C@H](NC(=O)C(F)(F)F)[C@H](O)[C@H](C)O2)O1 [BCH1691, (1'S,1R,3S)-5,10-dioxo-3-methoxymethyl-1-(2',3',6'-trideoxy-3'-trifluoroacetamido-L-lyxohexopyranose)-3,4,5,10-tetrahydro-1H-naphtho-[2,3-c]-pyran]
VLB/OV3 [2]: 2.10

CC[C@H]1CC2=C(C(=O)c3ccccc3C2=O)[C@H](O[C@H]2C[C@H](N)[C@H](O)[C@H](C)O2)O1 [BCH2021, (1'S,1S,3S)-5,10-dioxo-3-ethyl-1-(2',3',6'-trideoxy-3'-amino-L-lyxohexopyranose)-3,4,5,10-tetrahydro-1H-naphtho-[2,3-c]-pyran]
VLB/OV3 [2]: 3.74

CC(=O)C1CC2=C(C(=O)c3ccccc3C2=O)C(OCC2CCCNC2)O1 (mixture of isomers) [BCH2061, Methyl-(1-O-[3-piperidinemethanol]-5,10-dioxo-3,4,5,10-tetrahydronaphthaleno-[2,3-c]pyran3-yl) ketone hydrochloride salt, mixture of isomers]
VLB/OV3 [2]: 18
